Test results reported in the supplement of paper PMC8967900.

Experiments:
Test in all cases: selective drug sensitivity score (sDSS, relative to normal bone marrow) (sDSS (score)); higher = more potent and effective on the cell line relative to normal bone marrow cells
Settings in all cases: 72 h
ALL-SIL = system: ALL-SIL
CCRF-CEM = system: CCRF-CEM
COG-LL-319h = system: COG-LL-319h
COG-LL-355h = system: COG-LL-355h
COG-LL-394h = system: COG-LL-394h
COG-LL-402h = system: COG-LL-402h
KARPAS-45 = system: KARPAS-45
KASUMI-9 = system: KASUMI-9
KOPN-8 = system: KOPN-8
LC4-1 = system: LC4-1
MHH-CALL-2 = system: MHH-CALL-2
MOLT-16 = system: MOLT-16
NALL-1 = system: NALL-1
NALM-16 = system: NALM-16
P12-ICHIKAWA = system: P12-ICHIKAWA
PF-382 = system: PF-382
REH = system: REH
RPMI-8402 = system: RPMI-8402
SEM cells = system: SEM cells
TMD5 = system: TMD5
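Note: ALL cell lines in 384-well plates, five doses spanning 10,000-fold, each plate scaled between vehicle and 100 µmol/L benzalkonium chloride controls, sDSS an adapted area-under-curve metric.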

Row | SMILES | selective drug sensitivity score (ALL-SIL) | selective drug sensitivity score (CCRF-CEM) | selective drug sensitivity score (COG-LL-319h) | selective drug sensitivity score (COG-LL-355h) | selective drug sensitivity score (COG-LL-394h) | selective drug sensitivity score (COG-LL-402h) | selective drug sensitivity score (KARPAS-45) | selective drug sensitivity score (KASUMI-9) | selective drug sensitivity score (KOPN-8) | selective drug sensitivity score (LC4-1) | selective drug sensitivity score (MHH-CALL-2) | selective drug sensitivity score (MOLT-16) | selective drug sensitivity score (NALL-1) | selective drug sensitivity score (NALM-16) | selective drug sensitivity score (P12-ICHIKAWA) | selective drug sensitivity score (PF-382) | selective drug sensitivity score (REH) | selective drug sensitivity score (RPMI-8402) | selective drug sensitivity score (SEM cells) | selective drug sensitivity score (TMD5)
1 | C[C@H]1C[C@@H]2[C@H]([C@@H](O)C[C@@]3(C)[C@H]2CC[C@]3(O)C(=O)CO)[C@@]2(C)C=CC(=O)C=C12 [Methylprednisolone] (top concentration 10000 nM) | 10.9 | 6.4 | 14.2 | 22.9 | -2.3 | 18.5 | 16.4 | 4 | 21.1 | 5.9 | 26.5 | 7.9 | 24.8 | -2.3 | 19.8 | -1.6 | -2.3 | -2.1 | 7.9 | 15
2 | CN(C)C(=N)NC(=N)N [Metformin] (top concentration 100000 nM) | -0.02 | -0.02 | -0.02 | -0.02 | -0.02 | -0.02 | -0.02 | -0.02 | -0.02 | -0.02 | 0.58 | -0.02 | -0.02 | -0.02 | -0.02 | -0.02 | 0.08 | -0.02 | -0.02 | -0.02
3 | Clc1ccc(Nc2nnc(Cc3ccncc3)c3ccccc23)cc1 [Vatalanib] (top concentration 10000 nM) | 0.1 | 0 | 0 | 0 | 0 | 0 | 0 | 0 | 0 | 0 | 0.1 | 0 | 0 | 0 | 0 | 0 | 0 | 0 | 0 | 0
4 | CN(C)C(=O)c1cc2cnc(Nc3ccc(N4CCNCC4)cn3)nc2n1C1CCCC1 [Ribociclib] (top concentration 10000 nM) | -1.12 | 3.08 | 2.18 | 0.18 | -2.02 | 4.58 | 0.68 | 6.38 | 1.68 | 4.18 | 3.68 | 4.88 | -1.62 | 1.48 | 2.18 | 2.88 | -0.42 | 2.98 | 2.28 | 0.78
5 | Cn1cc(-c2cnn3c(N)c(Br)c([C@@H]4CCCNC4)nc23)cn1 [MK-8776] (top concentration 2500 nM) | 2.04 | 1.04 | 1.04 | 0.54 | -0.96 | 2.64 | 0.34 | 1.54 | -0.46 | 0.54 | 2.54 | 1.44 | -1.46 | 1.14 | -0.36 | 0.14 | 0.24 | 1.44 | 2.64 | -1.46
6 | CCCc1cc(C)[nH]c(=O)c1CNC(=O)c1cc(-c2ccnc(N3CCN(C)CC3)c2)cc2c1cnn2C(C)C [GSK343] (top concentration 1000 nM) | 0 | 0 | 0 | 0 | 0.1 | 0 | 0 | 0 | 0 | 0 | 0 | 0 | 0 | 0 | 0 | 0 | 0 | 0 | 0 | 0
7 | COCC1(CO)C(=O)C2CCN1CC2 (stereo not given) [APR-246] (top concentration 10000 nM) | -1.16 | -0.86 | 7.44 | 2.44 | -1.16 | -1.16 | -1.16 | -0.66 | 0.54 | 0.74 | 6.84 | 1.04 | -1.16 | 2.44 | -1.16 | -1.16 | -1.16 | -1.16 | -1.16 | -1.16
8 | N#Cc1ccc(C(c2ccc(C#N)cc2)n2cncn2)cc1 [Letrozole] (top concentration 10000 nM) | -0.04 | -0.04 | -0.04 | -0.04 | -0.04 | -0.04 | -0.04 | -0.04 | -0.04 | -0.04 | -0.04 | -0.04 | -0.04 | -0.04 | -0.04 | -0.04 | 4.76 | -0.04 | -0.04 | -0.04
9 | CNc1nc(Nc2cn(C(C)(C)C#N)nc2C)ncc1C(F)(F)F [GNE-0877] (top concentration 1000 nM) | 0 | 0 | 0 | 0 | 0 | 0 | 0 | 0 | 0 | 0 | 0 | 0 | 0 | 0 | 0 | 0 | 0.8 | 0 | 0 | 0
10 | NS(=O)(=O)NCCNc1nonc1/C(=N/O)Nc1ccc(F)c(Br)c1 [Epacadostat] (top concentration 10000 nM) | -0.26 | -0.26 | -0.26 | -0.26 | -0.26 | -0.26 | -0.26 | 0.74 | 2.44 | -0.26 | 1.64 | -0.06 | 3.74 | -0.26 | -0.26 | -0.26 | 3.34 | 0.54 | 8.34 | 4.44
11 | CNC(=O)c1cc(COc2nnc(Nc3ccc(Cl)cc3)c3ccoc23)ccn1 [Telatinib] (top concentration 10000 nM) | 0 | 0 | 0 | 0 | 0 | 0 | 0 | 1 | 0.9 | 0.7 | 0.4 | 0 | 0 | 0 | 0 | 0 | 2.6 | 0 | 0.2 | 0.9
12 | O=C(CCNC(=O)c1ccc(OC(F)(F)F)cc1)N[C@@H]1CCCc2ccccc21 [ML390] (top concentration 50000 nM) | 2 | 9.3 | 16.9 | 8.6 | -1.2 | 3.2 | 7.1 | 13.1 | 22.3 | 7.4 | 4.1 | 20.8 | -1.2 | 6.6 | 18.5 | 9.8 | 16.1 | 12.6 | 10.8 | -1.2
13 | FC(F)(F)c1ccc(/C=C/c2nc(COc3ccc(CCCCn4ccnn4)cc3)co2)cc1 [Mubritinib] (top concentration 1000 nM) | 8.66 | 6.06 | 11.1 | 2.76 | 16.2 | -0.84 | 11.6 | 3.56 | 7.76 | 4.86 | 4.76 | 18.6 | -2.24 | 4.66 | 20.7 | 14.2 | 20 | 22.5 | 6.56 | 0.26
14 | CCOc1ccccc1-n1c(C(C)N2CCN(C(=O)COc3ccc(Cl)cc3)CC2)nc2ccccc2c1=O (stereo not given) [Erastin] (top concentration 10000 nM) | 6.94 | 9.34 | 19.3 | 14.4 | -0.76 | 7.64 | 8.24 | 7.74 | 18.8 | 16 | 6.34 | 23 | 6.64 | 9.34 | 7.94 | 21 | 7.04 | -5.96 | 6.34 | 7.04
15 | CCN(CC)CCOc1ccc(/C(=C(/Cl)c2ccccc2)c2ccccc2)cc1 [Clomifene] (top concentration 10000 nM) | 0.12 | -0.08 | -0.48 | 0.52 | -0.08 | -0.88 | 1.22 | 1.72 | 8.92 | 4.62 | 4.12 | 0.92 | 1.22 | -2.88 | 0.32 | 0.72 | 0.72 | 0.32 | 2.32 | 1.32
16 | CCOc1cc2ncc(C#N)c(Nc3ccc(OCc4ccccn4)c(Cl)c3)c2cc1NC(=O)/C=C/CN(C)C [Neratinib] (top concentration 1000 nM) | 1.08 | 2.48 | 6.58 | 5.68 | 5.48 | 7.78 | 2.28 | 3.68 | 2.28 | 3.58 | 2.58 | 1.98 | -0.32 | 1.78 | 1.28 | 0.88 | -0.12 | 3.08 | 1.28 | -0.52
17 | O=C(NC[C@H](O)CN1CCc2ccccc2C1)c1cc(NC2COC2)ncn1 (top concentration 10000 nM) | -0.06 | -0.06 | 9.34 | -0.06 | -0.06 | 0.34 | 0.04 | -0.06 | -0.06 | -0.06 | 0.04 | 1.54 | -0.06 | -0.06 | 0.24 | -0.06 | -0.06 | -0.06 | -0.06 | -0.06
18 | COc1cc2c(NC3CCN(C(C)C)CC3)nc(N3CCC(F)(F)CC3)nc2cc1OCCCN1CCCC1 [UNC0642] (top concentration 10000 nM) | -0.04 | -0.54 | -1.44 | 4.36 | 2.76 | 2.66 | 3.56 | 0.76 | -0.74 | -1.14 | 0.96 | -2.94 | -0.74 | -3.74 | -0.14 | -2.14 | -0.14 | -0.74 | -0.14 | -0.84
19 | O=C(c1ccc(C(=O)N2CCC(N3CCCC3)CC2)c(Nc2ccccc2)c1)N1CCC(N2CCCC2)CC1 [UNC1215] (top concentration 10000 nM) | 0.4 | 0 | 0 | 0 | 0 | 0 | 0 | 0 | 0 | 0 | 0 | 0 | 0 | 0 | 0 | 0 | 0.5 | 0 | 0 | 0
